Measurements reported in patent US9029384B2, “Phosphatidylinositol 3-kinase inhibitors” (Gilead Calistoga LLC, priority 2012, dated 2015).
Read-outs that look alike come from different tables or passages of the source.

How the values were obtained:
basophils = assay: Basophil activation in human whole blood (Flow2 CAST kit, CD63 positive cells); type: cell-based; settings: Homo sapiens
How it was run: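 Human whole blood (K2-EDTA) preincubated 60 minutes at 37° C with compound serial dilutions or DMSO (0.3% final), then stimulated with anti-FcεRI mAb or fMLP and stained for CD63/CCR3. Percent CD63+ among ≥200 CCR3-high basophils by flow cytometry, normalized to stimulated vehicle as 100%. EC50 from four-parameter fits, geometric means in nM, concentrations corrected for reagent dilution.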

[1] = Hepatocyte stability, 1% final DMSO, 2 μM substrate (t1/2^a); type: in vitro ADME; settings: human, cryopreserved hepatocytes, TA with 1% final DMSO
Protocol: This assay was used to evaluate the metabolic stability of test articles (TA) following incubation in cryopreserved hepatocytes by monitoring parent drug disappearance via […]. The TA with 1% final DMSO concentration was incubated with 1 million hepatocytes/ml at 2 μM substrate in duplicate. The incubation was carried out at 37° C. with 5% CO2 and saturating humidity.

[2] = Hepatocyte stability, 0.01% final DMSO, 1 μM substrate (t1/2^b); type: in vitro ADME; settings: human, hepatocytes, TA with 0.01% final DMSO
Protocol: Alternatively, assay reagents and/or conditions can be modified in determining the inhibitory activities to PI3K isomers. In additional studies, similar assay using TA and 0.01% final DMSO concentration were incubated with 1 million hepatocytes/mL at 1 μM substrate in duplicate. The incubation was carried out at 37° C. with 5% CO2 and saturating humidity.

PI3Kδ = molecular target: T1, PI3Kδ (Homo sapiens, UniProt O00329); assay: Enzymatic activity of PI3K isoforms, TR-FRET assay (PIP3 formation); type: biochemical
T1 construct: made in house
How it was run: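 Recombinant heterodimeric class I PI3K; PIP3 product measured by TR-FRET competition with labelled PIP3 for Eu-GRP-1 PH domain. Reaction 30 min at 25 °C, stopped with 10 mM EDTA.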

[3] = basophils activated with anti-FcεRI mAb or fMLP, geometric mean
[4] = 2 μM substrate, samples at 0, 1, 2, 4 hours, read-out: human hepatocyte t½^a
[5] = 1 μM substrate, samples at 0, 1, 3, 6 hours, read-out: human hepatocyte t½^b
[6] = PI3Kδ, TR-FRET, 2×Km ATP, 10 μM PIP2, read-out: IC50
[7] = human hepatocytes, read-out: t1/2^a
[8] = human hepatocytes, read-out: t1/2^b

T1 sequence (O00329 whole entry, canonical isoform): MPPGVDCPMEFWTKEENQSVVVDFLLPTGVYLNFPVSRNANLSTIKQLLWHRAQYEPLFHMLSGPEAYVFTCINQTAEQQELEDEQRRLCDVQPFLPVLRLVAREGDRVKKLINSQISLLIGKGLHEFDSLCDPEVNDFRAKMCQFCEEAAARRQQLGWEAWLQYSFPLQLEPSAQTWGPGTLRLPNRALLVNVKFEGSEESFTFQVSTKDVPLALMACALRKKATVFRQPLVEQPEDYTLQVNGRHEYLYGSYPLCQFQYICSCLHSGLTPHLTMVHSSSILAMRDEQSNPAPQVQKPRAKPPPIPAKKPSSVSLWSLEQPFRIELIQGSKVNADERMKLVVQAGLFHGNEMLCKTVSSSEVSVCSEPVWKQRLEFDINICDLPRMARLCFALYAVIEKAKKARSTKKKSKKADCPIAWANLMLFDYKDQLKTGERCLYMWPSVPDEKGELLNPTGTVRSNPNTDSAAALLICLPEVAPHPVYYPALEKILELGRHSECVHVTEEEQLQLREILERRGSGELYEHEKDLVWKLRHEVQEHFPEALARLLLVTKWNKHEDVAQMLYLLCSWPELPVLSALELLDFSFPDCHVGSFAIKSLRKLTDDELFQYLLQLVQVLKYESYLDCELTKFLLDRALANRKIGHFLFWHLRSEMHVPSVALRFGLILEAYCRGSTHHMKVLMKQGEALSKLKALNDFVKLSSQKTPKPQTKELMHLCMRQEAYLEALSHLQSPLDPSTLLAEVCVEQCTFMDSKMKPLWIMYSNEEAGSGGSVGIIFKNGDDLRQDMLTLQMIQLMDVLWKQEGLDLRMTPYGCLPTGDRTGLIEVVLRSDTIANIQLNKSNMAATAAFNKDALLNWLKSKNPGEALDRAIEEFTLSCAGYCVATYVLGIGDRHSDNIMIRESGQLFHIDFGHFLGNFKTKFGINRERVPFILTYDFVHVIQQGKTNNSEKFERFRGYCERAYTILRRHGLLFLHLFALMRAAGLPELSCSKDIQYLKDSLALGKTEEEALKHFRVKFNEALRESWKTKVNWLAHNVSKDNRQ
T1 sequence (P27986 whole entry partner, canonical isoform): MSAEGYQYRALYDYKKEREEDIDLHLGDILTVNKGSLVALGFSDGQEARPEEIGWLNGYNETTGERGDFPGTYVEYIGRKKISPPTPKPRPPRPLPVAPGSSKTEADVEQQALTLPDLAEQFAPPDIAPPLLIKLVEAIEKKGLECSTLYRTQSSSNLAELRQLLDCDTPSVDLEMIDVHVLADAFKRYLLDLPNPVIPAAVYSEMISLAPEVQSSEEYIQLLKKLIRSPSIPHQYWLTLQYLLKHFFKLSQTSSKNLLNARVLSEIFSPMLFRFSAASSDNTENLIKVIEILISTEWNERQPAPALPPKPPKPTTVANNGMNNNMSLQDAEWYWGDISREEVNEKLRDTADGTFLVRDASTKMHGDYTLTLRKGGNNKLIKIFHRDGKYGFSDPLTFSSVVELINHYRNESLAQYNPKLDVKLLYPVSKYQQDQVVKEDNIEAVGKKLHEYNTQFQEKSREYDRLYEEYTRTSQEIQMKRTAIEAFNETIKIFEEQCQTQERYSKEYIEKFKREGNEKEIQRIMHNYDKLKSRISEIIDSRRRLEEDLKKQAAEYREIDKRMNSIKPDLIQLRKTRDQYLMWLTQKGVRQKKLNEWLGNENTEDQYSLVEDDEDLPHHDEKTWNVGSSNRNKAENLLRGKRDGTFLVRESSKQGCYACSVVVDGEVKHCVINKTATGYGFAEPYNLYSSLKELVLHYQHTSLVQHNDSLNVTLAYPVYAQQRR

Row | EC50 (basophils; [3]) [nM] | half-life at 2 μM [1, 4] [min] | half-life at 1 μM [2, 5] [min] | IC50 (PI3Kδ; [6]) [nM] | SMILES | EC50 (basophils; basophil activation) [nM] | half-life at 2 μM [1, 7] [min] | half-life at 1 μM [2, 8] [min] | IC50 (PI3Kδ) [nM]
1 | 1 to 10 | > 600 | 60 to 180 | 10 to 50 | CC(Nc1nc(N)nc(N)c1C#N)c1nc2cccc(F)c2c(=O)n1-c1cc(Cl)cc(Cl)c1 (single isomer, unassigned) [Compound 42a] | – | – | – | –
2 | 1 to 10 | > 600 | 360 to 600 | 1 to 10 | CC(Nc1nc(N)nc(N)c1C#N)c1nc2cccc(C(F)F)c2c(=O)n1-c1cc(F)cc(F)c1 (single isomer, unassigned) [Compound 52a] | – | – | – | –
3 | < 1 | > 600 | 180 to 360 | < 1 | CC(Nc1nc(N)nc(N)c1C#N)c1nc2cccc(Cl)c2c(=O)n1-c1ccccc1 (single isomer, unassigned) [Compound 49a] | < 0.5 | > 600 | > 240 | –
4 | 1 to 10 | > 600 | 60 to 180 | 1 to 10 | CC(Nc1nc(N)nc(N)c1C#N)c1nc2c(Cl)ccc(F)c2c(=O)n1-c1cc(F)cc(F)c1 (single isomer, unassigned) [Compound 67a] | – | – | – | –
5 | 1 to 10 | > 600 | 180 to 360 | < 1 | CC(Nc1nc(N)nc(N)c1C#N)c1nc2cccc(Cl)c2c(=O)n1-c1cccc(F)c1 (single isomer, unassigned) [Compound 108a] | – | – | – | –

The next lines start with the molecule.

Row | SMILES | EC50 (basophils; [3]) [nM] | half-life at 2 μM [1, 4] [min] | half-life at 1 μM [2, 5] [min] | IC50 (PI3Kδ; [6]) [nM] | EC50 (basophils; basophil activation) [nM] | half-life at 2 μM [1, 7] [min] | half-life at 1 μM [2, 8] [min] | IC50 (PI3Kδ) [nM]
6 | CCC(Nc1nc(N)nc(N)c1C#N)c1nc2c(F)cccc2c(=O)n1-c1cc(F)cc(F)c1 (single isomer, unassigned) [Compound 17a] | < 1 | > 600 | 360 to 600 | 1 to 10 | – | – | – | –
7 | CC(Nc1nc(N)nc(N)c1C#N)c1nc2c(F)ccc(F)c2c(=O)n1-c1cc(F)cc(F)c1 (single isomer, unassigned) [Compound 21a] | 1 to 10 | 360 to 600 | 180 to 360 | 1 to 10 | – | – | – | –
8 | CC(Nc1nc(N)nc(N)c1C#N)c1nc2ccc(F)cc2c(=O)n1-c1cc(F)cc(F)c1 (single isomer, unassigned) [Compound 11a] | 1 to 10 | > 600 | 360 to 600 | 1 to 10 | – | – | – | –
9 | CCC(Nc1nc(N)nc(N)c1C#N)c1nc2c(C)ccc(F)c2c(=O)n1-c1cc(F)cc(F)c1 (single isomer, unassigned) [Compound 37a] | 10 to 50 | 360 to 600 | 180 to 360 | 10 to 50 | – | – | – | –
10 | C[C@H](Nc1ncnc(N)c1C#N)c1nc2cccc(Cl)c2c(=O)n1-c1ccccc1 [Y, reference compound] | 10 to 50 | < 60 | – | – | > 15 | < 120 | < 120 | < 1
11 | CC(Nc1nc(N)nc(N)c1C#N)c1nc2cccc(F)c2c(=O)n1-c1cccc(C#N)c1 (single isomer, unassigned) [Compound 38a] | 1 to 10 | > 600 | > 600 | 10 to 50 | – | – | – | –
12 | C[C@H](Nc1ncnc(N)c1C#N)c1nc2cccc(Cl)c2c(=O)n1-c1cc(F)cc(F)c1 [Z, reference compound] | 10 to 50 | 60 to 180 | – | – | > 10 | < 180 | < 120 | 1 to 10
